What all share (format): in vivo
Assay [1] has as its system Mycosphaerella graminicola; Anamorph: Septoria tritici. Nature of the assay: Leaf Blotch of Wheat fungicidal activity (SEPTTR). As to conditions: Zymoseptoria tritici; for pest or weed control at 100 ppm: rate 100 ppm; for pest or weed control at 121.5 g/ha: rate 121.5 g/H. Summed up:
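Acetone solutions diluted with nine volumes of water containing 110 ppm Triton X-100, sprayed to run-off on first-leaf wheat seedlings (Yuma), inoculated with S. tritici before or after treatment. Plants held in dew chambers, then in a 20 °C greenhouse. Disease severity (0–100%) scored when untreated plants fully symptomatic; % control relative to untreated.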

Another assay relates to Erysiphe cichoracearum. The assay can be described thus: Powdery Mildew of Cucumber fungicidal activity (ERYSCI). As to conditions: Golovinomyces cichoracearum, 24 h, 1 Day Protectant, read-out: Disease Control ERYSCI 1DP. Here is the method: Technical grades of materials were dissolved in acetone, which were then mixed with nine volumes of water containing 110 ppm Triton X-100. The fungicide solutions were applied onto wheat seedlings using an automated booth sprayer to run-off. All sprayed plants were allowed to air dry prior to further handling. All fungicides were evaluated using the aforementioned method for their activity vs. all target diseases. Wheat leaf blotch and brown rust activity were also evaluated using track spray applications, in which case the fungicides were formulated as EC formulations, containing 0.1% Trycol 5941 in the spray solutions. Wheat plants (variety Yuma) were grown from seed in a greenhouse in 50% mineral soil/50% soil-less Metro mix until the first leaf was fully emerged, with 7-10 seedlings per pot. These plants were inoculated with an aqueous spore suspension of Septoria tritici either prior to or after fungicide treatments. After inoculation the plants were kept in 100% relative humidity (one day in a dark dew chamber followed by two to three days in a lighted dew chamber at 20° C.) to permit spores to germinate and infect the leaf. The plants were then transferred to a greenhouse set at 20° C. for disease to develop. When disease symptoms were fully expressed on the 1st leaves of untreated plants, infection levels were assessed on a scale of 0 to 100 percent disease severity. Percent disease control was calculated using the ratio of disease severity on treated plants relative to untreated plants. Evaluation of Fungicidal Activity: Powdery Mildew of Cucumber (Erysiphe cichoracearum; Bayer Code […]) Cucumber seedlings (variety Bush Pickle) were grown in soil-less Metro mix, with one plant per pot, and used in the test when 12 to 14 days old. Plants were inoculated with a spore suspension 24 hr following fungicide treatments. After inoculation the plants remained in the greenhouse set at 20° C. until disease was fully expressed. Fungicide formulation, application and disease assessment on the sprayed leaves followed the procedures as described in the Example A.

The subject of the next assay is Uncinula necator. The assay can be described thus: Grape Powdery Mildew fungicidal activity (UNCINE). As to conditions: Erysiphe necator, 24 h, 1 Day Protectant, read-out: Disease Control UNCINE 1DP. Here is the method:
Technical grades of materials were dissolved in acetone, which were then mixed with nine volumes of water containing 110 ppm Triton X-100. The fungicide solutions were applied onto wheat seedlings using an automated booth sprayer to run-off. All sprayed plants were allowed to air dry prior to further handling. All fungicides were evaluated using the aforementioned method for their activity vs. all target diseases. Wheat leaf blotch and brown rust activity were also evaluated using track spray applications, in which case the fungicides were formulated as EC formulations, containing 0.1% Trycol 5941 in the spray solutions. Wheat plants (variety Yuma) were grown from seed in a greenhouse in 50% mineral soil/50% soil-less Metro mix until the first leaf was fully emerged, with 7-10 seedlings per pot. These plants were inoculated with an aqueous spore suspension of Septoria tritici either prior to or after fungicide treatments. After inoculation the plants were kept in 100% relative humidity (one day in a dark dew chamber followed by two to three days in a lighted dew chamber at 20° C.) to permit spores to germinate and infect the leaf. The plants were then transferred to a greenhouse set at 20° C. for disease to develop. When disease symptoms were fully expressed on the 1st leaves of untreated plants, infection levels were assessed on a scale of 0 to 100 percent disease severity. Percent disease control was calculated using the ratio of disease severity on treated plants relative to untreated plants. Evaluation of Fungicidal Activity: Grape Powdery Mildew (Uncinula necator; Bayer code […]) Grape seedlings (variety Carignane) were grown in soil-less Metro mix, with one plant per pot, and used in the test when approximately one month old. Plants were inoculated 24 hr after fungicide treatment by shaking spores from infected leaves over test plants. Plants were maintained in a greenhouse set at 20° C. until disease was fully developed. Fungicide formulation, application and disease assessment on the sprayed leaves followed the procedures as described in the Example A.

For assay [2], the system named is Blumeria graminis f.sp. hordei. Nature of the assay: Barley Powdery Mildew fungicidal activity (ERYSGH). The conditions noted are these: 24 h, 1 Day Protectant, read-out: Disease Control ERYSGH 1DP. Here is the method:
Technical grades of materials were dissolved in acetone, which were then mixed with nine volumes of water containing 110 ppm Triton X-100. The fungicide solutions were applied onto wheat seedlings using an automated booth sprayer to run-off. All sprayed plants were allowed to air dry prior to further handling. All fungicides were evaluated using the aforementioned method for their activity vs. all target diseases. Wheat leaf blotch and brown rust activity were also evaluated using track spray applications, in which case the fungicides were formulated as EC formulations, containing 0.1% Trycol 5941 in the spray solutions. Wheat plants (variety Yuma) were grown from seed in a greenhouse in 50% mineral soil/50% soil-less Metro mix until the first leaf was fully emerged, with 7-10 seedlings per pot. These plants were inoculated with an aqueous spore suspension of Septoria tritici either prior to or after fungicide treatments. After inoculation the plants were kept in 100% relative humidity (one day in a dark dew chamber followed by two to three days in a lighted dew chamber at 20° C.) to permit spores to germinate and infect the leaf. The plants were then transferred to a greenhouse set at 20° C. for disease to develop. When disease symptoms were fully expressed on the 1st leaves of untreated plants, infection levels were assessed on a scale of 0 to 100 percent disease severity. Percent disease control was calculated using the ratio of disease severity on treated plants relative to untreated plants. Evaluation of Fungicidal Activity: Barley Powdery Mildew (Blumeria graminis fsp. hordei; Synonym: Erysiphe graminis fsp. hordei; Bayer Code […]) Barley seedlings (variety Harrington) were propagated in soil-less Metro mix, with each pot having 8 to 12 plants, and used in the test when first leaf was fully emerged. Test plants were inoculated by dusting with infected stock plants 24 hr after fungicide treatments. After inoculation the plants were kept in a greenhouse set at 20° C. for disease to develop. Fungicide formulation, application and disease assessment on the sprayed leaves followed the procedures as described in the Example A.

[3] abbreviates: 24 h, 1 Day Protectant, read-out: Disease control SEPTTR 1DP.
[4] abbreviates: 72 h, 3 Day Curative, read-out: Disease control SEPTTR 3DC.

Each structure is given as a SMILES string. Where two headings read alike, the source gives them in different places.

As to `COc1ccnc(C(=O)N[C@H]2COC[C@H](CC(F)(F)F)[C@@H](OC3CCCC3)[C@H](C)OC2=O)c1OCOC(C)=O` [Compound F105], the pest or weed control at 100 ppm in assay [1] (setting [3]) fell in the range of 80 to 100%; in assay [1] (setting [4]), 80 to 100%; in the assay with Erysiphe cichoracearum, 0 to 80%. Moreover, the pest or weed control at 121.5 g/ha in assay [1] (setting [3]) and in assay [1] (setting [4]) was 80 to 100% each time.

`COc1ccnc(C(=O)N[C@H]2COC[C@H](CCc3ccccc3)[C@@H](OCC(C)C)[C@H](C)OC2=O)c1OCOC(C)=O` [Compound F82]: the values for the pest or weed control at 100 ppm (in assay [1] (setting [3]); in assay [1] (setting [4]); in the assay on Erysiphe cichoracearum) were 80 to 100%, 80 to 100% and 0 to 80%, respectively. Besides, the pest or weed control at 121.5 g/ha in assay [1] (setting [3]) and in assay [1] (setting [4]) was 80 to 100% in each case.

As to `COc1ccnc(C(=O)N[C@H]2COC[C@H](Cc3ccc(C)cc3)[C@@H](OCC(C)C)[C@H](C)OC2=O)c1OCOC(C)=O` [Compound F117], the pest or weed control at 100 ppm (in assay [1] (setting [3]); in assay [1] (setting [4]); in the assay with Uncinula necator; in the assay on Erysiphe cichoracearum; in assay [2]) was 80 to 100% each time. The pest or weed control at 121.5 g/ha in assay [1] (setting [3]) and in assay [1] (setting [4]) was 80 to 100% in each case.

As to `COc1ccnc(C(=O)N[C@H]2COC[C@H](Cc3ccc(Cl)cc3Cl)[C@@H](OC(=O)C(C)C)[C@H](C)OC2=O)c1OC(C)=O` [Compound F73], the results for the pest or weed control at 100 ppm (in assay [1] (setting [3]); in assay [1] (setting [4]); in the assay on Erysiphe cichoracearum) were 80 to 100%, 80 to 100% and 0 to 80%, respectively. The pest or weed control at 121.5 g/ha in assay [1] (setting [3]) and in assay [1] (setting [4]) was 80 to 100% throughout.

For the compound `COc1ccnc(C(=O)N[C@H]2COC[C@H](CC3CCCC3)[C@@H](OC(=O)C(C)C)[C@H](C)OC2=O)c1OCOC(C)=O` [Compound F114], the pest or weed control at 100 ppm (in assay [1] (setting [3]); in assay [1] (setting [4]); in the assay on Uncinula necator; in the assay with Erysiphe cichoracearum; in assay [2]) was 80 to 100% each time. Besides, the pest or weed control at 121.5 g/ha in assay [1] (setting [3]) and in assay [1] (setting [4]) was 80 to 100% throughout.

Turning to `COc1ccnc(C(=O)N[C@H]2COC[C@H](Cc3ccc(C)cc3)[C@@H](OCC(C)C)[C@H](C)OC2=O)c1OC(C)=O` [Compound F80], the pest or weed control at 100 ppm in assay [1] (setting [3]) lay in the range of 80 to 100%; in assay [1] (setting [4]) it was 80 to 100%; with Uncinula necator it was 0 to 80%; in the assay on Erysiphe cichoracearum, 80 to 100%; in assay [2] it was 80 to 100%. The pest or weed control at 121.5 g/ha in assay [1] (setting [3]) and in assay [1] (setting [4]) was 80 to 100% throughout.

As for `COc1ccnc(C(=O)N[C@H]2COC[C@H](Cc3ccc(Cl)cc3Cl)[C@@H](OC(=O)C(C)C)[C@H](C)OC2=O)c1OCOC(C)=O` [Compound F110], the pest or weed control at 100 ppm was 80 to 100% in assay [1] (setting [3]), 80 to 100% in assay [1] (setting [4]) and 0 to 80% with Erysiphe cichoracearum. Moreover, the pest or weed control at 121.5 g/ha in assay [1] (setting [3]) and in assay [1] (setting [4]) was 80 to 100% each time.

For the compound `COc1ccnc(C(=O)N[C@H]2COC[C@H](Cc3ccc(F)cc3)[C@@H](OCC(C)C)[C@H](C)OC2=O)c1OCOC(C)=O` [Compound F96], the pest or weed control at 100 ppm (in assay [1] (setting [3]); in assay [1] (setting [4]); with Uncinula necator; with Erysiphe cichoracearum; in assay [2]) was 80 to 100% each time. For the same compound, the pest or weed control at 121.5 g/ha in assay [1] (setting [3]) and in assay [1] (setting [4]) was 80 to 100% in each case.

Consider `COc1ccnc(C(=O)N[C@H]2COC[C@H](CCC(C)C)[C@@H](OCCCC(F)(F)F)[C@H](C)OC2=O)c1OCOC(C)=O` [Compound F107], for which the pest or weed control at 100 ppm in assay [1] (setting [3]) lay in the range of 80 to 100%; in assay [1] (setting [4]) it was 80 to 100%; in the assay on Uncinula necator, 0 to 80%; in the assay on Erysiphe cichoracearum, 80 to 100%; in assay [2] it was 0 to 80%. Also, the pest or weed control at 121.5 g/ha in assay [1] (setting [3]) and in assay [1] (setting [4]) was 80 to 100% each time.

`CCCCCO[C@@H]1[C@@H](Cc2ccc(Cl)cc2Cl)COC[C@H](NC(=O)c2nccc(OC)c2OCOC(=O)COCC)C(=O)O[C@H]1C` [Compound F122]: the pest or weed control at 121.5 g/ha in assay [1] (setting [3]) was in the range of 80 to 100%. Further, the figures for the pest or weed control at 100 ppm (in the assay with Uncinula necator; with Erysiphe cichoracearum; in assay [2]) were 80 to 100%, 0 to 80% and 80 to 100%, respectively.

With `CCCCCO[C@@H]1[C@@H](Cc2ccc(Cl)cc2Cl)COC[C@H](NC(=O)c2nccc(OC)c2OC(=O)CCOC)C(=O)O[C@H]1C` [Compound F123], in assay [1] (setting [3]), the pest or weed control at 121.5 g/ha lay in the range of 80 to 100%. For the same compound, the pest or weed control at 100 ppm (with Uncinula necator; with Erysiphe cichoracearum; in assay [2]) was 80 to 100% in each case.

On to `COc1ccnc(C(=O)N[C@H]2COC[C@H](Cc3ccc(F)cc3)[C@@H](OCC(C)C)[C@H](C)OC2=O)c1OC(C)=O` [Compound F60], for which the pest or weed control at 100 ppm (in assay [1] (setting [3]); in assay [1] (setting [4]); in the assay on Uncinula necator; in the assay with Erysiphe cichoracearum) was 80 to 100% each time. Also, the pest or weed control at 121.5 g/ha in assay [1] (setting [3]) and in assay [1] (setting [4]) was 80 to 100% throughout.

Consider `COc1ccnc(C(=O)N[C@H]2COC[C@H](Cc3cccc4ccccc34)[C@@H](OC(=O)C(C)C)[C@H](C)OC2=O)c1OCOC(C)=O` [Compound F83, (3S,6S,7R,8S)-3-(3-(acetoxymethoxy)-4-methoxypicolin-amido)-6-methyl-8-(naphthalen-1-ylmethyl)-4-oxo-1,5-dioxonan-7-yl isobutyrate], for which the pest or weed control at 100 ppm in assay [1] (setting [3]) was 80 to 100%; in assay [1] (setting [4]), 80 to 100%; in the assay on Uncinula necator it was 0 to 80%; in assay [2] it was 80 to 100%. Also, the pest or weed control at 121.5 g/ha in assay [1] (setting [3]) was 0 to 80%; in assay [1] (setting [4]), 80 to 100%.
